Measurements reported in ChEMBL document CHEMBL2401711, “Recent progress and future options in the development of GLP-1 receptor agonists for the treatment of diabesity” (Bioorg Med Chem Lett, 2013).
Values belong to the compound of their own block, whether it stands above or below them.

Tests used:
[1] = Terminal half life in type 2 diabetes patient at 10 ug, sc bid; assay type: ADME, organism-based; conditions: human, in vivo, read-out: beta t1/2 (converted)
Homo sapiens [2] = assay: Toxicity in type 2 diabetes patient assessed as gastro-intestinal side effects at 10 to 20 mg administered once per week up to 104 weeks; assay type: organism-based; conditions: in vivo, 17472 h
Homo sapiens [3] = assay: Antidiabetic activity in type 2 diabetes patient assessed as reduction of HbA1c at => 0.2 mg administered once per week measured after 12 weeks (reference value: 0.5%); assay type: functional, organism-based; design: scale not given: the % may be the effect or the level left
Homo sapiens [4] = assay: Antidiabetic activity in type 2 diabetes patient assessed as reduction of body weight at => 0.8 mg administered once per week measured after 12 weeks (reference value: 1.2 kg); assay type: functional, organism-based
Albumin = Albumin (Homo sapiens, UniProt P02768); assay: Binding affinity to serum albumin (unknown origin) relative to control; assay type: ADME; conditions: isolated protein
[5] = (§1) Half life in human; assay type: ADME, organism-based; conditions: in vivo
Homo sapiens [6] = species: Homo sapiens; assay: as §1; assay type: ADME, organism-based; conditions: in vivo

Albumin, sequence (P02768 whole entry): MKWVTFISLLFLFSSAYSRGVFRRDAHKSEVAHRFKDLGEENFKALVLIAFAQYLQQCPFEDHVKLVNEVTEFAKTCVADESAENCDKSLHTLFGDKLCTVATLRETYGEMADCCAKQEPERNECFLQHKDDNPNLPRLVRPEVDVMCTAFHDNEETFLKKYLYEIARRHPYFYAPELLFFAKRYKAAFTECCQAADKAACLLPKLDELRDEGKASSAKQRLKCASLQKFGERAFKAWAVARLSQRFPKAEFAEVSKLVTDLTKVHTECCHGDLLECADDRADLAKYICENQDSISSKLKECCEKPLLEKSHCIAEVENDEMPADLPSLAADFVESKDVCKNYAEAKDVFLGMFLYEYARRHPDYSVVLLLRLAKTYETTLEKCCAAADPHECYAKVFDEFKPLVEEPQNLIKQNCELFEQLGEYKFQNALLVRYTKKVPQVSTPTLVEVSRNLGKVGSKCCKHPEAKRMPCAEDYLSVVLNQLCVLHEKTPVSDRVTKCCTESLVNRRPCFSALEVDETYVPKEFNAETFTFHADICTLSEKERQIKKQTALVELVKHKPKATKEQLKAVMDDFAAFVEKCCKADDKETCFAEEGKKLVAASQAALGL

Activity (Albumin): 99% | half-life [5]: 264 h
Compound: CCCCCCCCCCCCCCCC(=O)N[C@@H](CCC(=O)NCCCC[C@H](NC(=O)[C@H](C)NC(=O)[C@H](C)NC(=O)[C@H](CCC(N)=O)NC(=O)CNC(=O)[C@H](CCC(=O)O)NC(=O)[C@H](CC(C)C)NC(=O)[C@H](Cc1ccc(O)cc1)NC(=O)[C@H](CO)NC(=O)[C@H](CO)NC(=O)[C@@H](NC(=O)[C@H](CC(=O)O)NC(=O)[C@H](CO)NC(=O)[C@@H](NC(=O)[C@H](Cc1ccccc1)NC(=O)[C@@H](NC(=O)CNC(=O)[C@H](CCC(=O)O)NC(=O)[C@H](C)NC(=O)[C@@H](N)Cc1cnc[nH]1)[C@@H](C)O)[C@@H](C)O)C(C)C)C(=O)N[C@@H](CCC(=O)O)C(=O)N[C@@H](Cc1ccccc1)C(=O)N[C@H](C(=O)N[C@@H](C)C(=O)N[C@@H](Cc1c[nH]c2ccccc12)C(=O)N[C@@H](CC(C)C)C(=O)N[C@H](C(=O)N[C@@H](CCCNC(=N)N)C(=O)NCC(=O)N[C@@H](CCCNC(=N)N)C(=O)NCC(=O)O)C(C)C)[C@@H](C)CC)C(=O)O [LIRAGLUTIDE]

t1/2 (Homo sapiens [6]): 160 h
Compound: SEMAGLUTIDE [listing 2 of 2 here]

Second part, the compound before the results:

Compound: CC[C@H](C)[C@H](NC(=O)[C@H](C)NC(=O)CNC(=O)[C@H](Cc1ccccc1)NC(=O)[C@H](CC(N)=O)NC(=O)[C@H](CC(N)=O)NC(=O)[C@H](CO)NC(=O)[C@H](CO)NC(=O)[C@H](Cc1c[nH]cn1)NC(=O)[C@@H](NC(=O)[C@H](CC(C)C)NC(=O)[C@H](Cc1ccccc1)NC(=O)[C@H](CC(N)=O)NC(=O)[C@H](C)NC(=O)[C@H](CC(C)C)NC(=O)[C@H](CCCNC(=N)N)NC(=O)[C@H](CCC(N)=O)NC(=O)[C@@H](NC(=O)[C@H](C)NC(=O)[C@@H]1CSSC[C@H](NC(=O)[C@@H](N)CCCCN)C(=O)N[C@@H](CC(N)=O)C(=O)N[C@@H]([C@@H](C)O)C(=O)N[C@@H](C)C(=O)N[C@@H]([C@@H](C)O)C(=O)N1)[C@@H](C)O)C(C)C)C(=O)N[C@@H](CC(C)C)C(=O)N[C@@H](CO)C(=O)N[C@@H](CO)C(=O)N[C@H](C(=O)N[C@@H](CC(N)=O)C(=O)N[C@H](C(=O)NCC(=O)N[C@@H](CO)C(=O)N[C@@H](CC(N)=O)C(=O)N[C@H](C(=O)N[C@@H](Cc1ccc(O)cc1)C(=O)O)[C@@H](C)O)C(C)C)[C@@H](C)O [AMYLIN]
half-life [1]: 2.4 h

Compound: TASPOGLUTIDE
Activity (Homo sapiens [2]): 34%

Compound: SEMAGLUTIDE [listing 1 of 2 here]
Activity (Homo sapiens [3]): < 1.7% | Activity (Homo sapiens [4]): < 4.8 kg
